Assay results from patent US9981964B2 (Agency for Science, Technology and Research, priority 2013, dated 2018).

Tested on: HEK293-STF3A cells
Assay: STF3A assay (STF luciferase reporter in Wnt3A-expressing HEK293 cells)
Type: cell-based
Settings: Homo sapiens, 24 h, 1 day of treatment
Description: HEK293-STF cell line was modified from Human embryonic kidney cell line HEK293 transfected with the STF reporter. HEK293-STF3A cell line was further modified from HEK293-STF cell line to express Wnt3A. This cell line was used to identify compounds that regulate either early or late signaling components of the Wnt pathway. These two cell lines were obtained from David Virshup's laboratory, Duke-NUS. L-Wnt3A (ATCC, #CRL-2647) cell line was used for providing Wnt3A conditioned media. The three cell lines were grown in DMEM with 10% FBS incubated in 37° C. with 5% CO2.
2×10^4 HEK293-STF3A cells in 75 μl culture media were seeded in each well of white 96 well plates (Greiner #655098) and incubated overnight at 37° C. 25 μl serially diluted compound was added to the cells to give final concentration of 50 μM to 1.5 nM. After 1 day of treatment, 100 μl of Steady-Glo Luciferase Assay reagent (#E2520, Promega) was added to each well and incubated for 10 minutes at room temperature. Luminescence was measured using Tecan Safire2 plate reader.

SMILES | IC50
CN1C(=O)C2=C(C1=O)N(CC(=O)Nc1cnc(-c3ccccc3)cn1)CCC2 [Compound 12, 2-(6-methyl-5,7-dioxo-2,3,4,5,6,7-hexahydro-1H-pyrrolo[3,4-b]pyridin-1-yl)-N-(5-phenylpyrazin-2-yl)acetamide] | < 0.1 µM
CC(C(=O)Nc1ccc(-c2ccccc2)nn1)N1CCCC2=C1C(=O)N(C)C2=O (centres unmarked) [Compound 13, 2-(6-methyl-5,7-dioxo-2,3,4,5,6,7-hexahydro-1H-pyrrolo[3,4-b]pyridin-1-yl)-N-(6-phenylpyridazin-3-yl)propanamide] | < 0.1 µM
Cc1nc(-c2ccc(NC(=O)CN3CCCC4=C3C(=O)N(C3CC3)C4=O)nc2)cs1 [Compound 15, 2-(6-cyclopropyl-5,7-dioxo-2,3,4,5,6,7-hexahydro-1H-pyrrolo[3,4-b]pyridin-1-yl)-N-(5-(2-methylthiazol-4-yl)pyridin-2-yl)acetamide] | < 0.1 µM
O=C(CN1CCCC2=C1C(=O)N(C1CC1)C2=O)Nc1ccc(-c2ccccn2)cn1 [Compound 16, N-([2,3′-bipyridin]-6′-yl)-2-(6-cyclopropyl-5,7-dioxo-2,3,4,5,6,7-hexahydro-1H-pyrrolo[3,4-b]pyridin-1-yl)acetamide] | < 0.1 µM
CC(C(=O)Nc1ccc(-c2ccccn2)cn1)N1CCCC2=C1C(=O)N(C)C2=O (centres unmarked) [Compound 17, N-([2,3′-bipyridin]-6′-yl)-2-(6-methyl-5,7-dioxo-2,3,4,5,6,7-hexahydro-1H-pyrrolo[3,4-b]pyridin-1-yl)propanamide] | < 0.1 µM
CC(C(=O)Nc1cc(-c2cccc(Cl)c2)no1)N1CCCC2=C1C(=O)N(C)C2=O (centres unmarked) [Compound 18, N-(3-(3-chlorophenyl)isoxazol-5-yl)-2-(6-methyl-5,7-dioxo-2,3,4,5,6,7-hexahydro-1H-pyrrolo[3,4-b]pyridin-1-yl)propanamide] | < 5 µM
CC(C(=O)Nc1cnc(-c2ccccc2)cn1)N1CCCC2=C1C(=O)N(C)C2=O (centres unmarked) [Compound 19, 2-(6-methyl-5,7-dioxo-2,3,4,5,6,7-hexahydro-1H-pyrrolo[3,4-b]pyridin-1-yl)-N-(5-phenylpyrazin-2-yl)propanamide] | < 0.1 µM
CC(C(=O)Nc1ccc(-c2cccnc2)nc1)N1CCCC2=C1C(=O)N(C)C2=O (centres unmarked) [Compound 20, N-([2,3′-bipyridin]-5-yl)-2-(6-methyl-5,7-dioxo-2,3,4,5,6,7-hexahydro-1H-pyrrolo[3,4-b]pyridin-1-yl)propanamide] | < 0.1 µM
CN1C(=O)C2=C(C1=O)N(CC(=O)Nc1cnc(-c3cccnc3)cn1)CCC2 [Compound 21, 2-(6-methyl-5,7-dioxo-2,3,4,5,6,7-hexahydro-1H-pyrrolo[3,4-b]pyridin-1-yl)-N-(5-(pyridin-3-yl)pyrazin-2-yl)acetamide] | < 0.1 µM
CN1C(=O)C2=C(C1=O)N(CC(=O)Nc1cnc(-c3ccncc3)cn1)CCC2 [Compound 22, 2-(6-methyl-5,7-dioxo-2,3,4,5,6,7-hexahydro-1H-pyrrolo[3,4-b]pyridin-1-yl)-N-(5-(pyridin-4-yl)pyrazin-2-yl)acetamide] | > 10 µM
CC(C(=O)Nc1cnc(-c2cccnc2)cn1)N1CCCC2=C1C(=O)N(C)C2=O (centres unmarked) [Compound 23, 2-(6-methyl-5,7-dioxo-2,3,4,5,6,7-hexahydro-1H-pyrrolo[3,4-b]pyridin-1-yl)-N-(5-(pyridin-3-yl)pyrazin-2-yl)propanamide] | < 0.1 µM
Cc1ccc(-c2ccc(NC(=O)CN3CCCC4=C3C(=O)N(C)C4=O)cn2)cn1 [Compound 24, 2-(6-methyl-5,7-dioxo-2,3,4,5,6,7-hexahydro-1H-pyrrolo[3,4-b]pyridin-1-yl)-N-(6′-methyl-[2,3′-bipyridin]-5-yl)acetamide] | < 0.1 µM
CN1C(=O)C2=C(C1=O)N(CC(=O)Nc1ccc(-c3cccnc3)nn1)CCC2 [Compound 25, 2-(6-methyl-5,7-dioxo-2,3,4,5,6,7-hexahydro-1H-pyrrolo[3,4-b]pyridin-1-yl)-N-(6-(pyridin-3-yl)pyridazin-3-yl)acetamide] | < 0.1 µM
O=C(CN1CCCC2=C1C(=O)N(C1CC1)C2=O)Nc1cnc(-c2cccnc2)cn1 [Compound 26, 2-(6-cyclopropyl-5,7-dioxo-2,3,4,5,6,7-hexahydro-1H-pyrrolo[3,4-b]pyridin-1-yl)-N-(5-(pyridin-3-yl)pyrazin-2-yl)acetamide] | < 0.1 µM
Cc1ccccc1-c1ccc(NC(=O)CN2CCCC3=C2C(=O)N(C)C3=O)nn1 [Compound 27, 2-(6-methyl-5,7-dioxo-2,3,4,5,6,7-hexahydro-1H-pyrrolo[3,4-b]pyridin-1-yl)-N-(6-(o-tolyl)pyridazin-3-yl)acetamide] | < 1 µM
COc1ccccc1-c1ccc(NC(=O)CN2CCCC3=C2C(=O)N(C)C3=O)nn1 [Compound 28, N-(6-(2-methoxyphenyl)pyridazin-3-yl)-2-(6-methyl-5,7-dioxo-2,3,4,5,6,7-hexahydro-1H-pyrrolo[3,4-b]pyridin-1-yl)acetamide] | > 10 µM

SMILES | IC50
Cc1cccc(-c2ccc(NC(=O)CN3CCCC4=C3C(=O)N(C)C4=O)nn2)c1 [Compound 29, 2-(6-methyl-5,7-dioxo-2,3,4,5,6,7-hexahydro-1H-pyrrolo[3,4-b]pyridin-1-yl)-N-(6-(m-tolyl)pyridazin-3-yl)acetamide] | < 0.1 µM
Cc1ccc(-c2ccc(NC(=O)CN3CCCC4=C3C(=O)N(C)C4=O)nn2)cc1 [Compound 30, 2-(6-methyl-5,7-dioxo-2,3,4,5,6,7-hexahydro-1H-pyrrolo[3,4-b]pyridin-1-yl)-N-(6-(p-tolyl)pyridazin-3-yl)acetamide] | < 0.1 µM
COc1ccc(-c2ccc(NC(=O)CN3CCCC4=C3C(=O)N(C)C4=O)nn2)cc1 [Compound 31, N-(6-(4-methoxyphenyl)pyridazin-3-yl)-2-(6-methyl-5,7-dioxo-2,3,4,5,6,7-hexahydro-1H-pyrrolo[3,4-b]pyridin-1-yl)acetamide] | < 0.1 µM
COc1cccc(-c2ccc(NC(=O)CN3CCCC4=C3C(=O)N(C)C4=O)nn2)c1 [Compound 32, N-(6-(3-methoxyphenyl)pyridazin-3-yl)-2-(6-methyl-5,7-dioxo-2,3,4,5,6,7-hexahydro-1H-pyrrolo[3,4-b]pyridin-1-yl)acetamide] | < 0.1 µM
CC(C)N1C(=O)C2=C(C1=O)N(CC(=O)Nc1ccc(-c3ccccc3)nn1)CCC2 [Compound 33, 2-(6-isopropyl-5,7-dioxo-2,3,4,5,6,7-hexahydro-1H-pyrrolo[3,4-b]pyridin-1-yl)-N-(6-phenylpyridazin-3-yl)acetamide] | < 0.1 µM
Cc1cccc(-c2ccc(NC(=O)CN3CCCC4=C3C(=O)N(C)C4=O)nc2)n1 [Compound 34, 2-(6-methyl-5,7-dioxo-2,3,4,5,6,7-hexahydro-1H-pyrrolo[3,4-b]pyridin-1-yl)-N-(6-methyl-[2,3′-bipyridin]-6′-yl)acetamide] | < 0.1 µM
Cc1ccc(-c2cnc(NC(=O)CN3CCCC4=C3C(=O)N(C)C4=O)cn2)cn1 [Compound 35] | < 1 µM
CN1C(=O)C2=C(C1=O)N(CC(=O)Nc1ncc(-c3ccccc3)cn1)CCC2 [Compound 36, 2-(6-methyl-5,7-dioxo-2,3,4,5,6,7-hexahydro-1H-pyrrolo[3,4-b]pyridin-1-yl)-N-(5-phenylpyrimidin-2-yl)acetamide] | < 0.1 µM
CN1C(=O)C2=C(C1=O)N(CC(=O)Nc1ccc(-c3ccccc3)nc1)CCC2 [Compound 37, 2-(6-methyl-5,7-dioxo-2,3,4,5,6,7-hexahydro-1H-pyrrolo[3,4-b]pyridin-1-yl)-N-(6-phenylpyridin-3-yl)acetamide] | < 0.1 µM
O=C(CN1CCCC2=C1C(=O)N(C1CCC1)C2=O)Nc1ccc(-c2ccccc2)nn1 [Compound 38, 2-(6-cyclobutyl-5,7-dioxo-2,3,4,5,6,7-hexahydro-1H-pyrrolo[3,4-b]pyridin-1-yl)-N-(6-phenylpyridazin-3-yl)acetamide] | < 0.1 µM
Cc1ccc(-c2ccc(NC(=O)CN3CCCC4=C3C(=O)N(C)C4=O)nc2)cn1 [Compound 39, 2-(6-methyl-5,7-dioxo-2,3,4,5,6,7-hexahydro-1H-pyrrolo[3,4-b]pyridin-1-yl)-N-(6′-methyl-[3,3′-bipyridin]-6-yl)acetamide] | < 0.1 µM
Cc1cncc(-c2ccc(NC(=O)CN3CCCC4=C3C(=O)N(C)C4=O)nn2)c1 [Compound 41, 2-(6-methyl-5,7-dioxo-2,3,4,5,6,7-hexahydro-1H-pyrrolo[3,4-b]pyridin-1-yl)-N-(6-(5-methylpyridin-3-yl)pyridazin-3-yl)acetamide] | < 0.1 µM
CN1C(=O)C2=C(C1=O)N(CC(=O)Nc1ccc(-c3cccc(F)c3)nn1)CCC2 [Compound 42, N-(6-(3-fluorophenyl)pyridazin-3-yl)-2-(6-methyl-5,7-dioxo-2,3,4,5,6,7-hexahydro-1H-pyrrolo[3,4-b]pyridin-1-yl)acetamide] | < 0.1 µM
Cc1ccc(-c2ccc(NC(=O)CN3CCCC4=C3C(=O)N(C3CC3)C4=O)cn2)cn1 [Compound 44, 2-(6-cyclopropyl-5,7-dioxo-2,3,4,5,6,7-hexahydro-1H-pyrrolo[3,4-b]pyridin-1-yl)-N-(6′-methyl-[2,3′-bipyridin]-5-yl)acetamide] | < 0.1 µM
CN1C(=O)C2=C(C1=O)N(CC(=O)Nc1ccc(-c3ccc(C(F)(F)F)nc3)nn1)CCC2 [Compound 45, 2-(6-methyl-5,7-dioxo-2,3,4,5,6,7-hexahydro-1H-pyrrolo[3,4-b]pyridin-1-yl)-N-(6-(6-(trifluoromethyl)pyridin-3-yl)pyridazin-3-yl)acetamide] | < 5 µM
CN1C(=O)C2=C(C1=O)N(CC(=O)Nc1ccc(-c3ccc(F)nc3)nn1)CCC2 [Compound 46, N-(6-(6-fluoropyridin-3-yl)pyridazin-3-yl)-2-(6-methyl-5,7-dioxo-2,3,4,5,6,7-hexahydro-1H-pyrrolo[3,4-b]pyridin-1-yl)acetamide] | < 0.1 µM
